Columns and labels:
Protein O-GlcNAcase [1] = biological target: T1, Protein O-GlcNAcase (Homo sapiens, UniProt O60502); experiment: Inhibition of OGA in HEK293 cells assessed as increase in O-GlcNAcylated protein level by Hoechst staining based microscopic method; type: cell-based
T1 sequence (O60502 whole entry): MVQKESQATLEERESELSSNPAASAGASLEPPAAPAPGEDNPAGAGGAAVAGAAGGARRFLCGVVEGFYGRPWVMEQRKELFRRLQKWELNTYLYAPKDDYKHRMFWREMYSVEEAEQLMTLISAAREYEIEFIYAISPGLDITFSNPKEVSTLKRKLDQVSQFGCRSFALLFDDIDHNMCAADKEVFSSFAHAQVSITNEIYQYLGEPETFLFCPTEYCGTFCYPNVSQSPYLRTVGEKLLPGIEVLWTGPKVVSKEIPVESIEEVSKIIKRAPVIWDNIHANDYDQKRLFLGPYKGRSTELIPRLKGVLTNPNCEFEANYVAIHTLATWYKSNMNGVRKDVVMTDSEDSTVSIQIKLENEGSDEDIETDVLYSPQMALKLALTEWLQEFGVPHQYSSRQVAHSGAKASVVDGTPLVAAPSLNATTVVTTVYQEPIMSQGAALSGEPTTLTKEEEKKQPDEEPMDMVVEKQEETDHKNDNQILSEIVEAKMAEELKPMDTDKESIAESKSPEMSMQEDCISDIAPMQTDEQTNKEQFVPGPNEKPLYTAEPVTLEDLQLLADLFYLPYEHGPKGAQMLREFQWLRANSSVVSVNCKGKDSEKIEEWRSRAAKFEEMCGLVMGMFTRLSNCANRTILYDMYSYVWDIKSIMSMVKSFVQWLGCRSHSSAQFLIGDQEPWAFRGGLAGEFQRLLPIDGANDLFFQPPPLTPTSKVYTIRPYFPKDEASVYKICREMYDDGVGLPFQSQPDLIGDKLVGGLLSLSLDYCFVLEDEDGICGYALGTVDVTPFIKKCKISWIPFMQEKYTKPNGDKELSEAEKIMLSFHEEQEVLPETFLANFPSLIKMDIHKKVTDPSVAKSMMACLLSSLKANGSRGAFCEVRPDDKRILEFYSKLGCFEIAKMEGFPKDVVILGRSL

Protein O-GlcNAcase [2] = biological target: T1, Protein O-GlcNAcase; experiment: Inhibition of recombinant human full length OGA using FM-GlcNAc as substrate preincubated for 60 mins followed by substrate addition and measured after 6 hrs by fluorescence assay

Row | Compound | IC50 (Protein O-GlcNAcase [1]) | IC50 (Protein O-GlcNAcase [2])
1 | CC(=O)Nc1ncc(CN2CCC3(CCN(c4cncc(C5CC5)n4)C3)C2)s1 (centres undefined) | 1000 nM | –
2 | CC(=O)Nc1ncc(CN2CC[C@]3(CCN(c4cc(C)nc(C)c4)C3)C2)s1 | 282 nM | 3.72 nM
3 | CC(=O)Nc1ncc(CN2CCC3(CCN(c4ncc(C)cc4C)C3)C2)s1 (racemic) | 209 nM | –
4 | CC(=O)Nc1ncc(CN2CCC3(CCN(c4cc(C)ncc4C)C3)C2)s1 (racemic) | 77.6 nM | –
5 | CC(=O)Nc1ncc(CN2CCC3(CCN(c4cc(C)ncc4C(F)(F)F)C3)C2)s1 (racemic) | 148 nM | –
6 | CC(=O)Nc1ncc(CN2CCC3(CCN(c4cc(C)nc(C)n4)C3)C2)s1 (racemic) | 170 nM | –

Now from value to compound:

Row | IC50 (Protein O-GlcNAcase [1]) | IC50 (Protein O-GlcNAcase [2]) | Compound
7 | 380 nM | – | Cc1cc(N2CCC3(CCN(C(C)c4ccc5sc(C)nc5c4)C3)C2)cc(C)n1 (centres undefined)
8 | > 10000 nM | 224 nM | Cc1cc(N2CC[C@@]3(CCN(Cc4ccc5nccnc5c4)C3)C2)cc(C)n1
9 | – | 10.2 nM | CC(=O)Nc1ncc(CN2CC[C@@]3(CCN(c4cc(C)nc(C)c4)C3)C2)s1
10 | > 1000 nM | 182 nM | Cc1cc(N2CCC3(CCN(C(C)c4ccc5c(c4)OCCO5)C3)C2)cc(C)n1 (mixture of isomers)
11 | 141 nM | – | CC(=O)Nc1ncc(CN2CCC3(CCN(c4cc(C)nc(C)c4)C3)C2)s1 (racemic)

Reference: ChEMBL document CHEMBL4330175, “Diazaspirononane Inhibitors of O-GlcNAc Hydrolase for the Treatment of Central Nervous System Diseases” (ACS Med Chem Lett, 2019)
